Laboratory results published in EP1599478B1, “DIHYDROPTERIDINONES, METHOD FOR THE PRODUCTION AND USE THEREOF IN THE FORM OF DRUGS” (Boehringer Ingelheim Pharma GmbH & Co.KG, priority 2003, dated 2004).
Like-named read-outs stand apart in the source and are kept apart here.

Test system: HeLaS3 Zellen
Assay: Cytotoxicity test on cultured human tumour cells (AlamarBlue)
Assay type: cell-based
Conditions: read-out: HELA
Text: Die Wirkung der erfindungsgemäBen Verbindungen wurde im Cytotoxizitätstest an kultivierten humanen Tumorzellen und/oder in einer FACS-Analyse, beispielsweise an HeLaS3-Zellen, bestimmt.
Messung der Cytotoxizität an kultivierten humanen Tumorzellen
Zur Messung der Cytotoxizität an kultivierten humanen Tumorzellen wurden Zellen der zervikalen Carcinoma Tumorzell-Linie HeLaS3 (erhalten von American Type Culture Collection (ATCC)) in Ham's F12 Medium (Life Technologies) und 10% fötalem Rinderserum (Life Technologies) kultiviert und in der log-Wachstumsphase geerntet. Anschließend wurden die HeLaS3 Zellen in 96-well Platten (Costar) mit einer Dichte von 1000 Zellen pro well eingebracht und über Nacht in einem Inkubator (bei 37°C und 5 % CO2) inkubiert, wobei auf jeder Platte 6 wells nur mit Medium gefüllt wurden (3 wells zur Mediumkontrolle, 3 wells zur Inkubation mit reduzierten AlamarBlue). Die Wirksubstanzen wurden in verschiedenen Konzentrationen (gelöst in DMSO; Endkonzentration: 1%) zu den Zellen zugegeben (jeweils als Dreifachbestimmung) Nach 72 Stunden Inkubation wurden zu jeden well 20 µl AlamarBlue (AccuMed International) zugesetzt, und die Zellen für weitere 7 Stunden inkubiert. Zur Kontrolle wurde zu 3 wells je 20 µl reduziertes Alamar Blue gegeben (AlamarBlue Reagenz, das für 30 min autoklaviert wurde). Nach 7 h Inkubation wurde der Farbumsatz des AlamarBlue Reagenz in den einzelnen wells in einem Perkin Elmer Fluoreszenspektrophotometer bestimmt (Exitation 530 nm, Emission 590 nm, Slits 15, Integrate time 0.1). Die Menge an umgesetzten AlamarBlue Reagenz repräsentiert die metabolische Aktivität der Zellen. Die relative Zellaktivität wurde in Prozent der Kontrolle (HeLa S3 Zellen ohne Inhibitor) berechnet und die Wirkstoffkonzentration, die die Zellaktivität zu 50% hemmt (IC^50) abgeleitet. Die Werte wurden hierbei aus dem Mittelwert von drei Einzelbestimmungen - unter Korrektur des Leerwertes (Mediumkantrolle)- berechnet.

[1] = HeLa S3, HeLa cells, unit inferred

In the case of `CC[C@@H]1C(=O)N(C)c2cnc(Nc3ccc(C(=O)NC4CCN(C)CC4)cc3OC)nc2N1C1CCCC1` [compound 46], the IC50 (HeLa S3, 72 h) is reported as 12 nM.
`COc1cccc(N2c3nc(Nc4ccc(C(=O)NC5CCN(C)CC5)cc4OC)ncc3N(C)C(=O)[C@H]2C)c1` [compound 224] was tested, and the IC50 [1] was 1060 nM.
With `COc1cccc(N2c3nc(Nc4ccc(C(=O)NC5CCN(C)CC5)cc4)ncc3N(C)C(=O)[C@H]2C)c1` [compound 225] the IC50 [1] was 1180 nM.
In the case of `COc1cc(C(=O)NC2CCN(C)CC2)ccc1Nc1ncc2c(n1)N(c1ccccc1OC)[C@H](C)C(=O)N2C` [compound 226], the IC50 [1] is reported as 295 nM.
For `COc1cc(C(=O)NC(C)(C)CN2CCCC2)ccc1Nc1ncc2c(n1)N(c1ccccc1OC)[C@H](C)C(=O)N2C` [compound 227], the IC50 [1] was 853 nM.
With `COc1cc(C(=O)NC2CCNCC2)ccc1Nc1ncc2c(n1)N(C1CCCC1)[C@H](C)C(=O)N2C` [compound 238] the IC50 [1] was 15 nM.
`CC[C@@H]1C(=O)N(C)c2cnc(Nc3ccc(C(=O)NC(C)(C)CN4CCOCC4)cc3OC)nc2N1C1CCCC1` [compound 239] gave an IC50 [1] of 51 nM.
For `COc1cc(C(=O)NC(C)(C)CN(C)C)ccc1Nc1ncc2c(n1)N(C1CCCCC1)[C@H](C)C(=O)N2C` [compound 240], the IC50 [1] was 17 nM.
`CC[C@@H]1C(=O)N(C)c2cnc(Nc3ccc(C(=O)NC(C)(C)CN4CCN(C)CC4)cc3OC)nc2N1CCC(C)C` [compound 241] gave an IC50 [1] of 44 nM.
